In US11524968B2, “Heterocyclic compound as a protein kinase inhibitor” (HK inno.N Corporation, priority 2017, dated 2022):

These molecules were tested against JAK1 (Homo sapiens (Human), UniProt P23458) (assay: Analysis of JAK1 activity inhibition ability (ADP-Glo Kinase Assay)). Settings: JAK1 enzyme, ADP-Glo luminescence, ATP 250 uM, IRS-itide substrate, 30° C. 40 minutes; read-out: IC50.
Type: biochemical
How it was run: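 ADP-Glo luminescence read-out of ADP production, with IC50 taken as the concentration halving JAK1 activity relative to control. Enzyme was incubated 40 min at 30 °C with compound, IRS-itide (40 ng/mL) and ATP (250 uM), concentrations as prepared in pH 7.5 Tris-HCl/MgCl2/BSA/DTT buffer.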

Sequence of JAK1 (P23458 whole entry): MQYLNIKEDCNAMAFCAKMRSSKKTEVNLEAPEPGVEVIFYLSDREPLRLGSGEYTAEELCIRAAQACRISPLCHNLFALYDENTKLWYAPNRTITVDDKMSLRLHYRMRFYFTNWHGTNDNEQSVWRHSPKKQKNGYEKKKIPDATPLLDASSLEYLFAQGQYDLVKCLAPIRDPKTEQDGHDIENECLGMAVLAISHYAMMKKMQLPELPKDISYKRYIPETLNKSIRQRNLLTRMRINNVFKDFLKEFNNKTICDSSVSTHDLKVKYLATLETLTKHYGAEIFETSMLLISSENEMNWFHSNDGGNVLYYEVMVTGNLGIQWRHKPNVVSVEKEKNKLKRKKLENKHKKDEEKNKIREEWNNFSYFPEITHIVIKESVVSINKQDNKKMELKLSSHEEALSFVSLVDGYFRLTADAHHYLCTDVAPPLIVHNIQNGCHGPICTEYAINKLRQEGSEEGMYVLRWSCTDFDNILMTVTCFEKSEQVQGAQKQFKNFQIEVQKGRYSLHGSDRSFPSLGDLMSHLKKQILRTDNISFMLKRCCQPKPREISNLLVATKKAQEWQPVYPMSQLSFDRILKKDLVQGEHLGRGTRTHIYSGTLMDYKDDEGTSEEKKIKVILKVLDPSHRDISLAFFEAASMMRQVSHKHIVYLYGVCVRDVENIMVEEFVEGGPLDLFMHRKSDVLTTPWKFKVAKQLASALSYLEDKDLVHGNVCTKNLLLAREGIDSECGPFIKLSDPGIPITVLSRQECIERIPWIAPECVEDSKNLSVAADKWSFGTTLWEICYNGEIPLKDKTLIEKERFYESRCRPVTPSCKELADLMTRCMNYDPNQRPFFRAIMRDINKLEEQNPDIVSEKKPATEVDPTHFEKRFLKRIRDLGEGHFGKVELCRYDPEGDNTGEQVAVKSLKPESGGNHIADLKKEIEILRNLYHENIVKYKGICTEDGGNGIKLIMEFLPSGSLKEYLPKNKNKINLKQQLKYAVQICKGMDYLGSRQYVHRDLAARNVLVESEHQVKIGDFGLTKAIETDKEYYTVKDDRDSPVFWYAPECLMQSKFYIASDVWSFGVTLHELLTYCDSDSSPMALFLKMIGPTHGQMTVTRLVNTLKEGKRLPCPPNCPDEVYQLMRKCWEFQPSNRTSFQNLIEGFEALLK

| Compound | IC50 |
| --- | --- |
| CCCCS(=O)(=O)Nc1ccc(-c2cc(NC(=O)C3CC3)nc3[nH]ccc23)cc1CC [Example 127, N-(4-(4-(butylsulfonamido)-3-ethylphenyl)-1H-pyrrolo[2,3-b]pyridin-6-yl)cyclopropanecarboxamide] | 20 to 200 nM |
| CCS(=O)(=O)N1CC(CC#N)(N2C3CCC2CN(c2cc(NC(=O)C4CC4)nc4[nH]ccc24)C3)C1 [Example 701, N-(4-(8-(3-(cyanomethyl)-1-(ethylsulfonyl)azetidin-3-yl)-3,8-diazabicyclo[3.2.1]octan-3-yl)-1H-pyrrolo[2,3-b]pyridin-6-yl)cyclopropanecarboxamide] | > 200 nM |
| Cn1cc(S(=O)(=O)Nc2ccc(-c3nc(NC(=O)C4CC4)nc4[nH]ccc34)cc2)cn1 [Example 199, N-(4-(4-((1-methyl-1H-pyrazole)-4-sulfonamido)phenyl)-7H-pyrrolo[2,3-d]pyrimidin-2-yl)cyclopropanecarboxamide] | > 200 nM |
| N#Cc1ccc(S(=O)(=O)Nc2ccc(-c3cc(NC(=O)C4CC4)nc4[nH]ccc34)cc2)cn1 [Example 40, N-(4-(4-((6-cyanopyridine)-3-sulfonamido)phenyl)-1H-pyrrolo[2,3-b]pyridin-6-yl)cyclopropanecarboxamide] | 20 to 200 nM |
| O=C(Nc1cc(-c2ccc(NS(=O)(=O)c3ccc(Br)c(F)c3)cc2)c2cc[nH]c2n1)C1CC1 [Example 31, N-(4-(4-((4-bromo-3-fluorophenyl)sulfonamido)phenyl)-1H-pyrrolo[2,3-b]pyridin-6-yl)cyclopropanecarboxamide] | 20 to 200 nM |
| O=C(Nc1cc(-c2ccc(C(F)(F)C(=O)N3CCS(=O)(=O)CC3)cc2)c2cc[nH]c2n1)C1CC1 [Example 571, N-(4-(4-(2-(1,1-dioxidothiomorpholino)-1,1-difluoro-2-oxoethyl)phenyl)-1H-pyrrolo[2,3-b]pyridin-6-yl)cyclopropanecarboxamide] | 20 to 200 nM |
| O=C(Nc1cc(-c2ccc(NC3CCN(C(=O)c4cc(F)cc(F)c4)CC3)cc2)c2cc[nH]c2n1)C1CC1 [Example 508, N-(4-(4-((1-(3,5-difluorobenzoyl)piperidin-4-yl)amino)phenyl)-1H-pyrrolo[2,3-b]pyridin-6-yl)cyclopropanecarboxamide] | > 200 nM |
| CC(C)(C)OC(=O)N1CCN(c2cc(NC(=O)C3CC3)nc3[nH]ccc23)CC1 [Example 692, tert-butyl 4-(6-(cyclopropanecarboxamido)-1H-pyrrolo[2,3-b]pyridine-4-yl)piperazin-1-carboxylate] | > 200 nM |
| CCNC(=O)Nc1ccc(-c2nc(NC(=O)C3CC3)nc3[nH]ccc23)cc1 [Example 438, N-(4-(4-(3-ethylureido)phenyl)-7H-pyrrolo[2,3-d]pyrimidin-2-yl)cyclopropanecarboxamide] | > 200 nM |
| CCCS(=O)(=O)Nc1ccc(-c2cc(NC(=O)C3CC3)nc3[nH]ccc23)c(CC)c1 [Example 115, N-(4-(2-ethyl-4-(propylsulfonamido)phenyl)-1H-pyrrolo[2,3-b]pyridin-6-yl)cyclopropanecarboxamide] | < 20 nM |
| CCCS(=O)(=O)Nc1ccc(-c2cc(NC(=O)C3CC3)nc3[nH]ccc23)cc1CC [Example 126, N-(4-(3-ethyl-4-(propylsulfonamido)phenyl)-1H-pyrrolo[2,3-b]pyridin-6-yl)cyclopropanecarboxamide] | < 20 nM |
| O=C(Nc1cc(-c2ccc(NS(=O)(=O)c3ccc(Br)cc3)cc2)c2cc[nH]c2n1)C1CC1 [Example 20, N-(4-(4-((4-bromophenyl)sulfonamido)phenyl)-1H-pyrrolo[2,3-b]pyridin-6-yl)cyclopropanecarboxamide] | 20 to 200 nM |
| CC(C)(C)OC(=O)N1C2CCC1CN(c1cc(NC(=O)C3CC3)nc3[nH]ccc13)C2 [Example 693, tert-butyl 3-(6-(cyclopropanecarboxamido)-1H-pyrrolo[2,3-b]pyridin-4-yl)-3,8-diazabicyclo[3.2.1]octane-8-carboxylate] | 20 to 200 nM |
| CC1CN(C(=O)Cc2ccccc2)CC=C1c1cc(NC(=O)C2CC2)nc2[nH]ccc12 (stereo not drawn) [Example 365, N-(4-(3-methyl-1-(2-phenylacetyl)-1,2,3,6-tetrahydropyridin-4-yl)-1H-pyrrolo[2,3-b]pyridin-6-yl)cyclopropanecarboxamide] | 20 to 200 nM |
| COC(=O)C(C)C(=O)N1CC=C(c2cc(NC(=O)C3CC3)nc3[nH]ccc23)C(C)C1 (stereo not drawn) [Example 320, methyl 3-(4-(6-(cyclopropanecarboxamido)-1H-pyrrolo[2,3-b]pyridin-4-yl)-3-methyl-3,6-dihydropyridin-1 (2H)-yl)-2-methyl-3-oxopropanoate] | > 200 nM |
| O=C(Nc1cc(-c2ccc(NS(=O)(=O)c3cccc(Cl)c3)cc2)c2cc[nH]c2n1)C1CC1 [Example 26, N-(4-(4-((3-chlorophenyl)sulfonamido)phenyl)-1H-pyrrolo[2,3-b]pyridin-6-yl)cyclopropanecarboxamide] | 20 to 200 nM |
| N#CCC1(CS(=O)(=O)Nc2ccc(-c3cc(NC(=O)C4CC4)nc4[nH]ccc34)cc2F)CC1 [Example 86, N-(4-(4-(((1-(cyanomethyl)cyclopropyl)methyl)sulfonamido)-3-fluorophenyl)-1H-pyrrolo[2,3-b]pyridin-6-yl)cyclopropanecarboxamide] | < 20 nM |
| O=C(Nc1cc(-c2ccc(NS(=O)(=O)N3CCOCC3)c(F)c2)c2cc[nH]c2n1)C1CC1 [Example 226, N-(4-(3-fluoro-4-(morpholine-4-sulfonamido)phenyl)-1H-pyrrolo[2,3-b]pyridin-6-yl)cyclopropanecarboxamide] | < 20 nM |

The remaining lines, values ahead:

| IC50 | Compound |
| --- | --- |
| 20 to 200 nM | N#CCC(=O)NC1CC=C(c2cc(NC(=O)C3CC3)nc3[nH]ccc23)CC1 (stereo not drawn) [Example 247, N-(4-(4-(2-cyanoacetamido)cyclohex-1-en-1-yl)-1H-pyrrolo[2,3-b]pyridin-6-yl)cyclopropanecarboxamide] |
| > 200 nM | N#CCC(=O)c1ccc(-c2cc(NC(=O)C3CC3)nc3[nH]ccc23)cc1 [Example 519, N-(4-(4-(2-cyanoacetyl)phenyl)-1H-pyrrolo[2,3-b]pyridin-6-yl)cyclopropanecarboxamide] |
| 20 to 200 nM | Cc1cc(C(=O)N2CC=C(c3cc(NC(=O)C4CC4)nc4[nH]ccc34)C(C)C2)ccn1 (stereo not drawn) [Example 379, N-(4-(3-methyl-1-(2-methylisonicotinoyl)-1,2,3,6-tetrahydropyridin-4-yl)-1H-pyrrolo[2,3-b]pyridin-6-yl)cyclopropanecarboxamide] |
| < 20 nM | N#CCCC(=O)N1CC=C(c2cc(NC(=O)C3CC3)nc3[nH]ccc23)CC1 [Example 252, N-(4-(1-(3-cyanopropanoyl)-1,2,3,6-tetrahydropyridin-4-yl)-1H-pyrrolo[2,3-b]pyridin-6-yl)cyclopropanecarboxamide] |
| > 200 nM | O=C(Nc1cc(C2=CCN(C(=O)NC(C3CC3)C(F)(F)F)CC2)c2cc[nH]c2n1)C1CC1 (stereo not drawn) [Example 450, 4-(6-(cyclopropanecarboxamido)-1H-pyrrolo[2,3-b]pyridin-4-yl)-N-(1-cyclopropyl-2,2,2-trifluoroethyl)-3,6-dihydropyridine-1 (2H)-carboxamide] |
| < 20 nM | O=C(Nc1cc(C2=CCN(C(=O)c3cnsc3)CC2)c2cc[nH]c2n1)C1CC1 [Example 292, N-(4-(1-(isothiazole-4-carbonyl)-1,2,3,6-tetrahydropyridin-4-yl)-1H-pyrrolo[2,3-b]pyridin-6-yl)cyclopropanecarboxamide] |
| < 20 nM | O=C(Nc1cc(-c2cnn(CC3CC3)c2)c2cc[nH]c2n1)C1CC1 [Example 478, N-(4-(1-(cyclopropylmethyl)-1H-pyrazol-4-yl)-1H-pyrrolo[2,3-b]pyridin-6-yl)cyclopropanecarboxamide] |
| > 200 nM | O=C(Nc1cc(-c2ccc(NS(=O)(=O)C3CC3)c(-c3ccccc3)c2)c2cc[nH]c2n1)C1CC1 [Example 130, N-(4-(6-(cyclopropanesulfonamido)-[1,1′-biphenyl]-3-yl)-1H-pyrrolo[2,3-b]pyridin-6-yl)cyclopropanecarboxamide] |
| 20 to 200 nM | CN(C)C(=O)Cc1ccc(-c2cc(NC(=O)C3CC3)nc3[nH]ccc23)cc1 [Example 540, N-(4-(4-(2-(dimethylamino)-2-oxoethyl)phenyl)-1H-pyrrolo[2,3-b]pyridin-6-yl)cyclopropanecarboxamide] |
| 20 to 200 nM | N#CCC(=O)N1CC(Nc2ccc(-c3cc(NC(=O)C4CC4)nc4[nH]ccc34)cc2)C1 [Example 515, N-(4-(4-((1-(2-cyanoacetyl)azetidin-3-yl)amino)phenyl)-1H-pyrrolo[2,3-b]pyridin-6-yl)cyclopropanecarboxamide] |
| < 20 nM | CCc1cc(-c2cc(NC(=O)C3CC3)nc3[nH]ccc23)ccc1NS(=O)(=O)CC [Example 124, N-(4-(3-ethyl-4-(ethylsulfonamido)phenyl)-1H-pyrrolo[2,3-b]pyridin-6-yl)cyclopropanecarboxamide] |
| < 20 nM | CCc1cc(NS(=O)(=O)C2CC2)ccc1-c1cc(NC(=O)C2CC2)nc2[nH]ccc12 [Example 113, N-(4-(4-(cyclopropanesulfonamido)-2-ethylphenyl)-1H-pyrrolo[2,3-b]pyridin-6-yl)cyclopropanecarboxamide] |
| < 20 nM | C[C@@H]1CN(C(=O)c2ccncc2F)CC=C1c1cc(NC(=O)C2CC2)nc2[nH]ccc12 [Example 402, (S)—N-(4-(1-(3-fluoroisonicotinoyl)-3-methyl-1,2,3,6-tetrahydropyridin-4-yl)-1H-pyrrolo[2,3-b]pyridin-6-yl)cyclopropanecarboxamide] |
| < 20 nM | CC(C)CS(=O)(=O)Nc1ccc(-c2cc(NC(=O)C3CC3)nc3[nH]ccc23)cc1 [Example 43, N-(4-(4-((2-methylpropyl)sulfonamido)phenyl)-1H-pyrrolo[2,3-b]pyridin-6-yl)cyclopropanecarboxamide] |
| 20 to 200 nM | Cc1nn(CCC#N)c(C)c1-c1cc(NC(=O)C2CC2)nc2[nH]ccc12 [Example 480, N-(4-(1-(2-cyanoethyl)-3,5-dimethyl-1H-pyrazol-4-yl)-1H-pyrrolo[2,3-b]pyridin-6-yl)cyclopropanecarboxamide] |
